SMILES strings stand for the structures.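 48-hour exposure; five concentrations; linearly interpolated endpoints. TGI denotes the concentration required for complete inhibition of growth.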

These results are taken from PubChem BioAssay (NCI).

Test systems include EKVX NSCLC; 786-0 renal; SF-539 CNS; T-47D breast; OVCAR-8 ovarian; COLO 205 colon; RXF 393 renal; M14 melanoma; HCC-2998 colon; SNB-19 CNS; UO-31 renal; HOP-62 NSCLC; MDA-MB-231 breast; SF-295 CNS; MOLT-4 leukemia; CCRF-CEM leukemia; BT-549 breast.
What all share (assay): NCI tumour cell line growth inhibition, 48 h

`Cn1c2c(c3ccccc31)CCN1OCC=C[C@@H](C(=O)O)[C@@H]21`: the TGI with EKVX NSCLC, with 786-0 renal, with SF-539 CNS, with T-47D breast, with OVCAR-8 ovarian and with COLO 205 colon was greater than 100 µM throughout. The TGI with RXF 393 renal, in the experiment on M14 melanoma, in the experiment with HCC-2998 colon, in the experiment with SNB-19 CNS, with UO-31 renal and in the experiment with HOP-62 NSCLC was greater than 100 µM throughout. Also, the TGI in the experiment on MDA-MB-231 breast was greater than 100 µM.

On to `CN(C)C(=S)N1C(=S)N(c2ccccc2)C(=Nc2ccccc2)C1=Nc1ccccc1`, for which the TGI with EKVX NSCLC, in the experiment with 786-0 renal, in the experiment on SF-295 CNS, in the experiment on SF-539 CNS, in the experiment with T-47D breast and with OVCAR-8 ovarian was greater than 100 µM each time. The TGI in the experiment with COLO 205 colon, in the experiment with RXF 393 renal, with MOLT-4 leukemia, in the experiment on CCRF-CEM leukemia, with HCC-2998 colon and with SNB-19 CNS was greater than 100 µM throughout. For the same compound, the TGI in the experiment with UO-31 renal, in the experiment with HOP-62 NSCLC and with MDA-MB-231 breast was greater than 100 µM each time.

`CCCCCN1CCN(c2ncccn2)CC1`: the TGI in the experiment with EKVX NSCLC, with 786-0 renal, in the experiment with SF-295 CNS, with SF-539 CNS, in the experiment with T-47D breast and in the experiment on OVCAR-8 ovarian was greater than 100 µM in each case. Besides, the TGI in the experiment on COLO 205 colon, with RXF 393 renal, with M14 melanoma, with CCRF-CEM leukemia, in the experiment on HCC-2998 colon and with SNB-19 CNS was greater than 100 µM in each case. In addition, the TGI in the experiment with UO-31 renal, in the experiment on HOP-62 NSCLC and in the experiment with MDA-MB-231 breast was greater than 100 µM throughout.

In the case of `O=C(/C=C/c1ccc(O)c(O)c1)OCc1ccccc1`, the TGI in the experiment with EKVX NSCLC was greater than 100 µM; with 786-0 renal, 84.3 µM; in the experiment with SF-295 CNS it was 57.4 µM; with SF-539 CNS it was 24.5 µM; with T-47D breast it was 73.8 µM; in the experiment with COLO 205 colon it was 70.9 µM. Moreover, the TGI in the experiment on RXF 393 renal was 65.4 µM; with M14 melanoma it was 48.2 µM; with MOLT-4 leukemia, 39.1 µM; with HCC-2998 colon, greater than 100 µM; with SNB-19 CNS, 97.6 µM; with UO-31 renal, 51.1 µM. Besides, the TGI with HOP-62 NSCLC was determined as 72.4 µM; with MDA-MB-231 breast, 67.1 µM.

On to `Oc1cccc(-c2ccc3c4c2O[C@H]2c5[nH]c6ccccc6c5C[C@@]5(O)[C@@H](C3)N(CC3CC3)CC[C@]425)c1`, for which the TGI in the experiment with EKVX NSCLC is 29.7 µM; with 786-0 renal, 2.97 µM; with SF-295 CNS it was 3.21 µM; with SF-539 CNS it was 3.14 µM; with BT-549 breast, 23 µM; in the experiment on OVCAR-8 ovarian, 3.23 µM. Further, the TGI was 5.92 µM with COLO 205 colon; 2.63 µM with RXF 393 renal; 3.07 µM with M14 melanoma; 10.4 µM in the experiment on CCRF-CEM leukemia; 3 µM in the experiment with SNB-19 CNS; 3.03 µM in the experiment on UO-31 renal. Moreover, in the experiment on MDA-MB-231 breast, the TGI turned out to be 4.03 µM.

For `CCN1CCN(c2nc3ccccc3nc2C(=O)c2ccc(OC)cc2)CC1`, the TGI with EKVX NSCLC was greater than 100 µM; with 786-0 renal, 64.8 µM; with SF-295 CNS it was greater than 100 µM; in the experiment with SF-539 CNS, greater than 100 µM; in the experiment on T-47D breast, greater than 100 µM; in the experiment with OVCAR-8 ovarian, greater than 100 µM. The TGI in the experiment with COLO 205 colon was greater than 100 µM; with RXF 393 renal it was 43.5 µM; with M14 melanoma, 37.3 µM; in the experiment with MOLT-4 leukemia, greater than 100 µM; in the experiment on HCC-2998 colon it was greater than 100 µM; in the experiment on SNB-19 CNS, greater than 100 µM. Besides, the TGI with UO-31 renal was greater than 100 µM; in the experiment with HOP-62 NSCLC, 55.5 µM.

Consider `O=C(CSc1nnc(Cc2ccccc2)o1)Nc1cccc(Cl)c1`, for which the TGI in the experiment with EKVX NSCLC, with 786-0 renal, in the experiment with SF-295 CNS, with SF-539 CNS, with OVCAR-8 ovarian and in the experiment with COLO 205 colon was greater than 100 µM each time. Moreover, the TGI in the experiment with RXF 393 renal, with M14 melanoma, in the experiment on MOLT-4 leukemia, with CCRF-CEM leukemia, with HCC-2998 colon and with SNB-19 CNS was greater than 100 µM throughout. In addition, the TGI with UO-31 renal and in the experiment with HOP-62 NSCLC was greater than 100 µM throughout.

With `Cc1nc2c(O)cc3c4c(=O)n(C)c(=O)n(C)c4n(Cc4ccccc4)c3c2nc1C`, the TGI was 50.2 µM in the experiment with EKVX NSCLC; 32.8 µM in the experiment on 786-0 renal; greater than 100 µM with SF-295 CNS; 30 µM with SF-539 CNS; 33.1 µM in the experiment with OVCAR-8 ovarian; 28 µM with COLO 205 colon. Moreover, the TGI came to 26.7 µM with RXF 393 renal; 36.6 µM in the experiment on M14 melanoma; 70.1 µM with MOLT-4 leukemia; 50 µM in the experiment on CCRF-CEM leukemia; 40.3 µM in the experiment on HCC-2998 colon; 34.4 µM in the experiment with SNB-19 CNS. In addition, the TGI with UO-31 renal amounted to 31.4 µM; with HOP-62 NSCLC it was 33.6 µM; with MDA-MB-231 breast, 38.2 µM.

On to `Cc1ccc2nc(N/N=C/c3ccc(C)s3)cc(C)c2c1`, for which the TGI in the experiment on EKVX NSCLC came out at 26.1 µM; in the experiment on 786-0 renal it was 11.3 µM; in the experiment with SF-295 CNS, 21.1 µM; with SF-539 CNS, 24.4 µM; with T-47D breast, 41.9 µM; in the experiment on OVCAR-8 ovarian, 31.3 µM. Moreover, the TGI worked out at 12.2 µM in the experiment on COLO 205 colon; 28.3 µM with RXF 393 renal; 23.3 µM with M14 melanoma; 53.4 µM in the experiment with MOLT-4 leukemia; 17.3 µM with HCC-2998 colon; 27.2 µM with SNB-19 CNS. Further, the TGI was determined as 31.3 µM in the experiment with HOP-62 NSCLC and 31.8 µM in the experiment with MDA-MB-231 breast.

For the compound `Nc1ccc(Oc2ccc(C3(c4ccc(Oc5ccc(N)cc5)cc4)C4CC5C6CC7CC5C3C(C7)C6C4)cc2)cc1`, the TGI in the experiment with EKVX NSCLC, with 786-0 renal, in the experiment on SF-295 CNS, in the experiment on SF-539 CNS, in the experiment with BT-549 breast and in the experiment on OVCAR-8 ovarian was greater than 100 µM each time. Moreover, the TGI in the experiment on COLO 205 colon was greater than 100 µM; with RXF 393 renal it was 22.6 µM; in the experiment on M14 melanoma, greater than 100 µM; in the experiment on MOLT-4 leukemia, greater than 100 µM; with CCRF-CEM leukemia, greater than 100 µM; in the experiment with HCC-2998 colon it was greater than 77.9 µM. The TGI in the experiment with SNB-19 CNS is greater than 100 µM; in the experiment with UO-31 renal it was greater than 100 µM; in the experiment on HOP-62 NSCLC, greater than 100 µM; with MDA-MB-231 breast it was 77 µM.
